From ChEMBL document CHEMBL1201862, “PubChem BioAssay data set” (2004)
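Exposure lasted 48 hours, with cells grown in 96-well plates and compounds tested at five concentrations. Here, GI50 denotes the concentration required for 50% inhibition of growth.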 Active and inactive are the calls of the source. No stated cut-off is given here; in the data, active = GI50 up to about 1.1 µM and inactive = higher.

Experiments:
Test in all cases: growth of human tumour cells (NCI), 48 h
[1] = test system: COLO 205
[2] = test system: HCC 2998
[3] = test system: HCT-116
[4] = test system: HL-60
[5] = test system: K562
[6] = test system: NCI-H23
[7] = test system: OVCAR-4
[8] = test system: OVCAR-5
[9] = test system: OVCAR-8
[10] = test system: RXF 393
[11] = test system: SF-268
[12] = test system: SF-295
[13] = test system: SK-MEL-28
[14] = test system: SK-MEL-2
[15] = test system: SK-OV-3
[16] = test system: SNB-19
[17] = test system: SW-620
[18] = test system: NCI/ADR-RES

| Compound | GI50 [1] | GI50 [2] | GI50 [3] | GI50 [4] | GI50 [5] | GI50 [6] | GI50 [7] | GI50 [8] | GI50 [9] | GI50 [10] | GI50 [11] | GI50 [12] | GI50 [13] | GI50 [14] | GI50 [15] | GI50 [16] | GI50 [17] | GI50 [18] |
| --- | --- | --- | --- | --- | --- | --- | --- | --- | --- | --- | --- | --- | --- | --- | --- | --- | --- | --- |
| CC(=O)NNc1nc(C)c(C(=O)NNC(=O)C(=O)Nc2c(C)cccc2C(C)(C)C)s1 | 46.8 µM (inactive) | 25.6 µM (inactive) | 75.2 µM (inactive) | 33.3 µM (inactive) | 31.3 µM (inactive) | > 100 µM (inactive) | 40.3 µM (inactive) | > 100 µM (inactive) | > 100 µM (inactive) | > 100 µM (inactive) | > 100 µM (inactive) | > 100 µM (inactive) | > 100 µM (inactive) | > 100 µM (inactive) | > 100 µM (inactive) | > 100 µM (inactive) | > 100 µM (inactive) |  |
| CCOc1cc(/C=C/C=C/c2ccc(N(C)C)cc2)[s+]c2ccccc12 | 34.9 µM (inactive) | 59.6 µM (inactive) | 21.7 µM (inactive) | 0.857 µM (active) | 4.85 µM (inactive) | 34.6 µM (inactive) | 16 µM (inactive) | > 100 µM (inactive) | 25.6 µM (inactive) | 24.2 µM (inactive) | 18.4 µM (inactive) | 33.8 µM (inactive) | 27.2 µM (inactive) | 20.4 µM (inactive) | 34 µM (inactive) | 31.3 µM (inactive) | 30.7 µM (inactive) |  |
| COc1ccc(NN=C2C(=O)CCC2=O)cc1 | 47.2 µM (inactive) | > 100 µM (inactive) | > 100 µM (inactive) | > 100 µM (inactive) | > 100 µM (inactive) | 69 µM (inactive) | 37.5 µM (inactive) | > 100 µM (inactive) | > 100 µM (inactive) | > 100 µM (inactive) | > 100 µM (inactive) | 98.9 µM (inactive) | > 100 µM (inactive) | > 100 µM (inactive) | > 100 µM (inactive) | > 100 µM (inactive) | > 100 µM (inactive) |  |
| N#CCC(=O)N/N=C1/C(=O)N(c2cc(Cl)ccc2Cl)C(=O)C(=O)C1c1nc2ccccc2s1 (stereo unspecified) | > 100 µM (inactive) | > 100 µM (inactive) | 84.7 µM (inactive) | 43.9 µM (inactive) | > 100 µM (inactive) | > 100 µM (inactive) | > 100 µM (inactive) | > 100 µM (inactive) | 81.5 µM (inactive) | < 0.01 µM (active) | 88.3 µM (inactive) | 94.4 µM (inactive) | > 100 µM (inactive) | 37.9 µM (inactive) | > 100 µM (inactive) | 64.3 µM (inactive) | 73.5 µM (inactive) |  |
| CC(C(=O)OCc1ccccc1)N(Cc1ccccc1)Cc1ccccc1 (stereo unspecified) | > 100 µM (inactive) | > 100 µM (inactive) | > 100 µM (inactive) | 21 µM (inactive) | 77.8 µM (inactive) | 45.2 µM (inactive) | > 100 µM (inactive) | > 100 µM (inactive) | > 100 µM (inactive) | 23.1 µM (inactive) | > 100 µM (inactive) | > 100 µM (inactive) | > 100 µM (inactive) | 29.6 µM (inactive) | > 100 µM (inactive) | > 100 µM (inactive) | > 100 µM (inactive) |  |
| COc1ccc(C2C(Cl)C(=O)N2NC(=O)Cc2ccccc2)cc1OC (stereo unspecified) | > 100 µM (inactive) | > 100 µM (inactive) | > 100 µM (inactive) | > 100 µM (inactive) | > 100 µM (inactive) | > 100 µM (inactive) | > 100 µM (inactive) | > 100 µM (inactive) | > 100 µM (inactive) | > 100 µM (inactive) | > 100 µM (inactive) | > 100 µM (inactive) | > 100 µM (inactive) | > 100 µM (inactive) | > 100 µM (inactive) | > 100 µM (inactive) | > 100 µM (inactive) |  |
| COc1cc2c3c(c1OC)Oc1ccc(cc1)CC1c4c(cc(OC)c(OC)c4Oc4ccc(cc4)CC3N(C)CC2)CCN1C (stereo unspecified) | 13.5 µM (inactive) | 14 µM (inactive) | 13.8 µM (inactive) | 15.3 µM (inactive) | 16.9 µM (inactive) | 57.9 µM (inactive) | 13.3 µM (inactive) | 56.6 µM (inactive) | 20.2 µM (inactive) | 12.9 µM (inactive) | 27 µM (inactive) | 18.5 µM (inactive) | 18.8 µM (inactive) | 32.3 µM (inactive) | 28.2 µM (inactive) | 33 µM (inactive) | 15.1 µM (inactive) |  |
| Cc1nc2c(=O)[nH]c(=O)n(C)c2[nH]c1=O.c1ccncc1 | > 100 µM (inactive) | > 100 µM (inactive) | > 100 µM (inactive) | > 100 µM (inactive) | > 100 µM (inactive) | > 100 µM (inactive) | > 100 µM (inactive) | > 100 µM (inactive) | > 100 µM (inactive) | > 100 µM (inactive) | > 100 µM (inactive) |  | > 100 µM (inactive) | > 100 µM (inactive) | > 100 µM (inactive) | > 100 µM (inactive) | > 100 µM (inactive) |  |
| Cc1ccc(C(=O)Nc2ncn(C3CC(O)C(CO)O3)c(=O)n2)cc1 (stereo unspecified) | > 100 µM (inactive) | > 100 µM (inactive) | > 100 µM (inactive) |  | > 100 µM (inactive) | > 100 µM (inactive) | > 100 µM (inactive) | > 100 µM (inactive) | > 100 µM (inactive) | > 100 µM (inactive) | > 100 µM (inactive) | > 100 µM (inactive) | > 100 µM (inactive) | > 100 µM (inactive) | > 100 µM (inactive) | 12.2 µM (inactive) | > 100 µM (inactive) | > 100 µM (inactive) |
| C/C(CCN(C)C)=N\OC(=O)c1ccccc1 | > 100 µM (inactive) | > 100 µM (inactive) | > 100 µM (inactive) | > 100 µM (inactive) | > 100 µM (inactive) | > 100 µM (inactive) | > 100 µM (inactive) | > 100 µM (inactive) | > 100 µM (inactive) | > 100 µM (inactive) | > 100 µM (inactive) | 63.7 µM (inactive) | > 100 µM (inactive) | > 100 µM (inactive) | > 100 µM (inactive) | > 100 µM (inactive) | > 100 µM (inactive) |  |
| C[C@@H]1OC(=O)C[C@H]2CC(=O)N(CCC3CN(S(=O)(=O)C(F)(F)F)c4ccccc43)C[C@@H]21 (stereo partly specified) | > 100 µM (inactive) | > 100 µM (inactive) | > 100 µM (inactive) |  | > 100 µM (inactive) | > 100 µM (inactive) | > 100 µM (inactive) | > 100 µM (inactive) |  | > 100 µM (inactive) |  | > 100 µM (inactive) | > 100 µM (inactive) | > 100 µM (inactive) | > 100 µM (inactive) | > 100 µM (inactive) | > 100 µM (inactive) | > 100 µM (inactive) |
| COc1cccc(C2SCc3nc4ccccc4n32)c1 (stereo unspecified) | > 100 µM (inactive) | 45.6 µM (inactive) | 39.7 µM (inactive) | 30.1 µM (inactive) | 45.4 µM (inactive) | 35 µM (inactive) | > 100 µM (inactive) | 58.9 µM (inactive) | 57.9 µM (inactive) | 53.6 µM (inactive) | 73.1 µM (inactive) | 35.7 µM (inactive) | 81.3 µM (inactive) | 56.2 µM (inactive) | 65.3 µM (inactive) | > 100 µM (inactive) | 46.6 µM (inactive) |  |
